Our source for the EC50 values is patent publication US11951094B2, “TLR2 modulator compounds, pharmaceutical compositions and uses thereof” (Axial Therapeutics, Inc., priority 2020, dated 2024).

Sequence of TLR2 (O60603 21-784): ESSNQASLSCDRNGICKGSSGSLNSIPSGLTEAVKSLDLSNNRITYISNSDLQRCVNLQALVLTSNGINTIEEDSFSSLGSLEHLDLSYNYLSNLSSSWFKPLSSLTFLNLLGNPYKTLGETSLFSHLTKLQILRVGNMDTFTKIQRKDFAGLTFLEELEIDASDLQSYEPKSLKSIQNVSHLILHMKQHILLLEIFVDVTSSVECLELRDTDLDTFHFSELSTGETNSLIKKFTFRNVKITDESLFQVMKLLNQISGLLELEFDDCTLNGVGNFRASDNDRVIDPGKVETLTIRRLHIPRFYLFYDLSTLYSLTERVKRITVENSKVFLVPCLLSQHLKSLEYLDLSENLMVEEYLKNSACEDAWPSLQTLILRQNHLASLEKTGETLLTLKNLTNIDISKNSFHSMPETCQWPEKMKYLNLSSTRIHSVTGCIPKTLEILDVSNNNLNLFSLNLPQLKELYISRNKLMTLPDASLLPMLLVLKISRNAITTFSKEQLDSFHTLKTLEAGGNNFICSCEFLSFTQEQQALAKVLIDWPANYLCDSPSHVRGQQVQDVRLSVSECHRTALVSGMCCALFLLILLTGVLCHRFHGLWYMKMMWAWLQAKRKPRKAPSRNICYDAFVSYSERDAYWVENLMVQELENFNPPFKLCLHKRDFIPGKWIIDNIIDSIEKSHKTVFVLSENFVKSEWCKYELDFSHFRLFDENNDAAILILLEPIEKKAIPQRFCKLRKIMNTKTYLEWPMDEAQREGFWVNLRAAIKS

One test addresses TLR2 (Homo sapiens, UniProt O60603). The test can be described thus: TLR2 agonist screening assay, HEK-Blue TLR2 reporter cell line (NF-kB-driven SEAP, absorbance at 600 nm). Type of test: cell-based. Further details: host or cells: HEK-293 (HEK-Blue TLR2 reporter cell line). The conditions noted are these: HEK-Blue TLR2 reporter cells, agonist mode; average of all runs (Table 3). The text has this: TLRs are a class of cell-surface receptors expressed on many different cell types that recognize conserved structural motifs present on pathogen-derived molecules. TLR2 recognizes bacteria-derived lipopeptides. […] Provided herein is an assay to identify and characterize the binding affinities of novel TLR2 agonists.
The in vitro TLR2 assay consists of a cell line that responds to TLR2 engagement by producing a factor that elicits a color change in the culture media and can be readily measured by various colorimetric detection methods. This assay enables the identification of existing and novel compounds that engage TLR2 and, by virtue of compound dilution, to approximate the binding affinity of these compounds for eliciting a TLR2 signal.
The TLR2 screening assay was developed from the HEK-Blue TLR2 reporter cell line that is commercially available from Invivogen (San Diego, CA). The reporter cell line consists of HEK-293 embryonic kidney cells that have been engineered to express TLR2 and with an NF-kB promoter driving expression of Secreted Alkaline Phosphatase (SEAP). Upon engagement of TLR2, downstream signaling results in activation of NF-kB pathway activation and secretion of SEAR In the presence of the detection reagent in the tissue culture media, SEAP mediates a color change from clear to indigo that is readily assessed by measuring absorbance at 600 nm.
HEK-Blue TLR2 reporter cells are cultured according to manufacturer's specifications until a confluence of 70-90%, at which point the cells are trypsinized, counted, and plated into 96-well plates at approximately 40,000 cells per well. Cells are cultured overnight and the TLR2 assay is performed 16-24 hours post-plating into 96 well plates.
Compounds are diluted from stocks dissolved in DMSO and a 1% DMSO final concentration is maintained in all testing wells.
The assay consists of removing the cell culture media after cells have been cultured overnight and replacing the media with HEK-Blue Detection media with TLR2 agonists at indicated dilution schemes. The Detection media contains a chemical substrate that turns from clear to indigo when acted upon by SEAP. The HEK-Blue cells are then cultured overnight in Detection media with diluted compounds. After overnight culture with agonists, each well of the plate is assayed in a plate reader at 600 nanometer absorbance.
• (1) HEK-Blue TLR2 cells are diluted in complete DME culture medium and plated into 96-well plates at 40,000 cells per well and cultured overnight. • (2) After 16-24 hours in culture, the media is removed and replaced with 200 microliters per well of HEK-Blue Detection media. • (3) TLR2 agonists are diluted 100-fold from DMSO stocks into each well, yielding a final DMSO concentration of 1% in all wells. • (3) Treated cells are cultured overnight and the following day are assayed in plate reader for Absorbance at 600 nanometer.
Following assay measurements utilizing either HEK-Blue detection or cytokine release, all data is analyzed with the GraphPad Prism8 statistical package to determine EC50, binding and activity metrics for the TLR2 modulators.
Data is generated using protocol described in Example 44.
On to `O=C(N[C@H]1C[C@@H]1c1ccccc1)[C@@H]1CN(C(=O)C23CC(C(=O)N4C[C@@H](C(=O)N[C@H]5C[C@@H]5c5ccccc5)[C@H](C(=O)N[C@H]5C[C@@H]5c5ccccc5)C4)(C2)C3)C[C@H]1C(=O)N[C@H]1C[C@@H]1c1ccccc1` [Compound 068], for which the EC50 (in general, the concentration needed to bring the measured effect to its halfway point) is over 1000 nM. Still for that read-out and setting: to `CCCCCCCCCCCCCCNC(=O)CC(C)(C)NC(=O)c1ccc(C(=O)N2C[C@@H](C(=O)N[C@H]3C[C@@H]3c3ccccc3)[C@H](C(=O)N[C@H]3C[C@@H]3c3ccccc3)C2)cc1` [Compound 011] belongs over 1000 nM. Still for that read-out and setting: to `CCCCCCNC(=O)C1CN(C(=O)c2ccc(C(=O)N3C[C@@H](C(=O)N[C@H]4C[C@@H]4c4ccccc4)[C@H](C(=O)N[C@H]4C[C@@H]4c4ccccc4)C3)cc2)CCN1C(=O)CCC` (stereo partly drawn) [Compound 055, (3S,4S)-1-(4-(4-butyryl-3-(hexylcarbamoyl)piperazine-1-carbonyl)benzoyl)-N3,N4-bis((1S,2R)-2-phenylcyclopropyl)pyrrolidine-3,4-dicarboxamide] belongs 351 to 1000 nM.

Still in this test, the particulars now being: HEK-Blue TLR2 reporter cells, agonist mode; average of all runs (Table 4).
The molecule `CCCCCCCO[C@@H]1CN(C(=O)c2ccc(C(=O)N3C[C@@H](C(=O)N[C@H]4C[C@@H]4c4ccccc4)[C@H](C(=O)N[C@H]4C[C@@H]4c4ccccc4)C3)cc2)C[C@H]1C(=O)NCCCCCC` (single isomer, unassigned) [Compound 114, (3S,4S)-1-(4-((3S*,4R*)-3-(heptyloxy)-4-(hexylcarbamoyl)pyrrolidine-1-carbonyl)benzoyl)-N3,N4-bis((1S,2R)-2-phenylcyclopropyl)pyrrolidine-3,4-dicarboxamide] yielded an EC50 of 51 to 350 nM. `CCCCCCCO[C@H]1CN(C(=O)c2ccc(C(=O)N3C[C@@H](C(=O)N[C@H]4C[C@@H]4c4ccccc4)[C@H](C(=O)N[C@H]4C[C@@H]4c4ccccc4)C3)cc2)C[C@H]1C(=O)NCCCCCC` (single isomer, unassigned) [Compound 115, (3S,4S)-1-(4-((3R*,4R*)-3-(heptyloxy)-4-(hexylcarbamoyl)pyrrolidine-1-carbonyl)benzoyl)-N3,N4-bis((1S,2R)-2-phenylcyclopropyl)pyrrolidine-3,4-dicarboxamide] came in with an EC50 of over 1000 nM. `CCCCCCCCCCCCCNC(=O)N[C@H]1CN(c2nc3ccc(C(=O)N4C[C@@H](C(=O)N[C@H]5C[C@@H]5c5ccccc5)[C@H](C(=O)N[C@H]5C[C@@H]5c5ccccc5)C4)cc3o2)C[C@@H]1OC` [Compound 247, (3S,4S)-1-(2-((3S,4S)-3-methoxy-4-(3-tridecylureido)pyrrolidin-1-yl)benzo[d]oxazole-6-carbonyl)-N3,N4-bis((1S,2R)-2-phenylcyclopropyl)pyrrolidine-3,4-dicarboxamide]: the EC50 was over 1000 nM. For `CCCCCCCCCCCCCCNC(=O)C[C@H]1CCCN1C(=O)c1ccc(C(=O)N2C[C@@H](C(=O)N[C@H]3C[C@@H]3c3ccccc3)[C@H](C(=O)N[C@H]3C[C@@H]3c3ccccc3)C2)cc1` [Compound 127, (3S,4S)-1-(4-((R)-2-(2-oxo-2-(tetradecylamino)ethyl)pyrrolidine-1-carbonyl)benzoyl)-N3,N4-bis((1S,2R)-2-phenylcyclopropyl) pyrrolidine-3,4-dicarboxamide], the EC50 was 51 to 350 nM. `CCCCCCCCCCCCCCNC(=O)[C@@H]1CN(Cc2ccc(C(=O)N3C[C@@H](C(=O)N[C@H]4C[C@@H]4c4ccccc4)[C@H](C(=O)N[C@H]4C[C@@H]4c4ccccc4)C3)cc2)CCN1C` [Compound 088, (3S,4S)-1-(4-(((S)-4-methyl-3-(tetradecylcarbamoyl)piperazin-1-yl)methyl)benzoyl)-N3,N4-bis((1S,2R)-2-phenylcyclopropyl) pyrrolidine-3,4-dicarboxamide] showed an EC50 of over 1000 nM. In the case of `CCCCCCCO[C@H]1CN(C(=O)c2ccc(C(=O)N3C[C@@H](C(=O)N[C@H]4C[C@@H]4c4ccccc4)[C@H](C(=O)N[C@H]4C[C@@H]4c4ccccc4)C3)cc2)C[C@@H]1C(=O)NCCCCCC` (relative stereo) [Compound 113, (3S,4S)-1-(4-((3R*,4S*)-3-(heptyloxy)-4-(hexylcarbamoyl)pyrrolidine-1-carbonyl)benzoyl)-N3,N4-bis((1S,2R)-2-phenylcyclopropyl)pyrrolidine-3,4-dicarboxamide], the EC50 is 51 to 350 nM. On the same count and under the same terms, as for `CCCCCCCCCCCCCCC(=O)NC1CCN(C(=O)c2cccc(C(=O)N3C[C@@H](C(=O)N[C@H]4C[C@@H]4c4ccccc4)[C@H](C(=O)N[C@H]4C[C@@H]4c4ccccc4)C3)c2)CC1` [Compound 166, (3S,4S)-1-(3-(4-pentadecanamidopiperidine-1-carbonyl)benzoyl)-N3,N4-bis((1S,2R)-2-phenylcyclopropyl)pyrrolidine-3,4-dicarboxamide], the figure is over 1000 nM; as for `CCCCCCCCCCCCCCC(=O)NC1CCN(S(=O)(=O)c2ccc(C(=O)N3C[C@@H](C(=O)N[C@H]4C[C@@H]4c4ccccc4)[C@H](C(=O)N[C@H]4C[C@@H]4c4ccccc4)C3)cc2)CC1` [Compound 165, (3S,4S)-1-(4-((4-pentadecanamidopiperidin-1-yl)sulfonyl)benzoyl)-N3,N4-bis((1S,2R)-2-phenylcyclopropyl)pyrrolidine-3,4-dicarboxamide], over 1000 nM.

For `CCCCCCNC(=O)[C@H](CN[C@H](c1ccc(C(=O)N2C[C@@H](C(=O)N[C@H]3C[C@@H]3c3ccccc3)[C@H](C(=O)N[C@H]3C[C@@H]3c3ccccc3)C2)cc1)C(F)(F)F)NC(=O)CCCCCC` (single isomer, unassigned) [Compound 149], the EC50 is 51 to 350 nM. `CCCCCCCCCC(=O)N[C@@H](COC(=O)Nc1ccc(C(=O)N2C[C@@H](C(=O)N[C@H]3C[C@@H]3c3ccccc3)[C@H](C(=O)N[C@H]3C[C@@H]3c3ccccc3)C2)cc1)C(=O)NCCCCCC` [Compound 239, (S)-2-decanamido-3-(hexylamino)-3-oxopropyl (4-((3S,4S)-3,4-bis(((1S,2R)-2-phenylcyclopropyl)carbamoyl)pyrrolidine-1-carbonyl)phenyl)carbamate] came in with an EC50 of 0.1 to 50 nM. Molecule `CCCCCCCCCCCCCCNC(=O)[C@H]1CN(S(=O)(=O)c2cccc(C(=O)N3C[C@@H](C(=O)N[C@H]4C[C@@H]4c4ccccc4)[C@H](C(=O)N[C@H]4C[C@@H]4c4ccccc4)C3)c2)CCN1C(C)=O` [Compound 192, (3S,4S)-1-(3-(((R)-4-acetyl-3-(tetradecylcarbamoyl)piperazin-1-yl)sulfonyl)benzoyl)-N3,N4-bis((1S,2R)-2-phenylcyclopropyl)pyrrolidine-3,4-dicarboxamide] showed an EC50 of 351 to 1000 nM. With `CCCCCCCCCCCCCNC(=O)[C@@H]1CN(C(=O)c2ccc(C(=O)N3C[C@@H](C(=O)N[C@H]4C[C@@H]4c4ccccc4)[C@H](C(=O)N[C@H]4C[C@@H]4c4ccccc4)C3)cc2)CCN1C(C)=O` [Compound 254, (3S,4S)-1-(4-((S)-4-acetyl-3-(tridecylcarbamoyl)piperazine-1-carbonyl)benzoyl)-N3,N4-bis((1S,2R)-2-phenylcyclopropyl)pyrrolidine-3,4-dicarboxamide], the EC50 is over 1000 nM. As to `CCCCCCCCCCCCCCNC(=O)[C@H]1CN(Cc2ccc(C(=O)N3C[C@@H](C(=O)N[C@H]4C[C@@H]4c4ccccc4)[C@H](C(=O)N[C@H]4C[C@@H]4c4ccccc4)C3)cc2)CCN1C` [Compound 084, (3S,4S)-1-(4-(((R)-4-methyl-3-(tetradecylcarbamoyl)piperazin-1-yl)methyl)benzoyl)-N3,N4-bis((1S,2R)-2-phenylcyclopropyl) pyrrolidine-3,4-dicarboxamide], the concentration giving a half-maximal response (EC50) is over 1000 nM. Regarding `CCCCCCCCCCCCCCC(=O)N1CCC[C@@H](NC(=O)c2ccc(C(=O)N3C[C@@H](C(=O)N[C@H]4C[C@@H]4c4ccccc4)[C@H](C(=O)N[C@H]4C[C@@H]4c4ccccc4)C3)cc2)C1` [Compound 153, (3S,4S)-1-(4-(((R)-1-pentadecanoylpiperidin-3-yl)carbamoyl)benzoyl)-N3,N4-bis((1S,2R)-2-phenylcyclopropyl)pyrrolidine-3,4-dicarboxamide], the EC50 is over 1000 nM.

The molecule `CCCCCCCCCC(=O)N[C@@H](CNc1nc2ccc(C(=O)N3C[C@@H](C(=O)N[C@H]4C[C@@H]4c4ccccc4)[C@H](C(=O)N[C@H]4C[C@@H]4c4ccccc4)C3)cc2o1)C(=O)NCCCCCC` [Compound 261, (3S,4S)-1-(2-(((S)-2-decanamido-3-(hexylamino)-3-oxopropyl)amino)benzo[d]oxazole-6-carbonyl)-N3,N4-bis((1S,2R)-2-phenylcyclopropyl)pyrrolidine-3,4-dicarboxamide] registered a 50% effective concentration (EC50) of over 1000 nM.
